Test results reported in US12285393B2, “Roles of modulators of intersectin-Cdc42 signaling in Alzheimer's disease” (priority 2017, dated 2025).

Experiments:
[1] = tested on: 3×Tg-AD mice; assay: Burrowing test; type: in vivo; details: 3×Tg AD mouse model; 20 μg/g I.P. once a week, 4 weeks
Description: (§1) Six-month-old C57/BL6 (WT) and 3×Tg-AD mice with an average weight of 24 g from Jackson Laboratory (Bar Harbor, Maine, United States of America) were used. The 3×Tg-AD mice in hybrid 129/C57BL/6 background contain two mutant human transgenes, hAPP harboring Swedish mutation (hAPPswe) and mutant htau (htau301L) under a neuron-specific promoter, and also contain the knock-in mutant presenilin 1 (PS1M146V). See Oddo et al. (2003) Neuron 39:409-421). 3×Tg-AD mice were received from Jackson Laboratory as Psen1 B6:129-Psen1<tmMpm>Tg(APPSwetauP301L)1Lfa/J and the wild type control as SF2: (B6129SF1/J+p+Tyr-c+Mgf-SIJ)F2. All mice were subjected to two weeks of training for familiarizing behavioral test procedures. Subsequently, mice were assayed to establish a baseline of behavior tests before ZCL compound treatment. Then, mice were separated into three treatment groups (Control, ZCL278 and ZCL279). Both ZCL278 and ZCL279 were dissolved in sesame oil with 5% DMSO and each treatment was administrated via an intraperitoneal injection. All treatment groups of mice were treated once a week. Control group was treated with 130 μl 5% DMSO in sesame oil. […]
Burrowing test: At least 2.5 hours before the start of the dark cycle (4:30 pm), mice from each selected treatment group were housed in individual cages. […] After 2 hours, the food left in the tube was measured.

[2] = tested on: 3×Tg-AD mice; assay: Morris water maze test; type: in vivo
Description: as §1, with “ZCL279).” for “ZCL279). Both ZCL278 and ZCL279 were dissolved in sesame oil with 5% DMSO and each treatment was administrated via an intraperitoneal injection. All treatment groups of mice were treated once a week. Control group was treated with 130 μl 5% DMSO in sesame oil.”
Mice were trained to swim to a 14 cm diameter circular clear Plexiglas platform submerged 1.5 cm beneath the surface of the water and invisible to the mice while swimming. […] Retention of the spatial training was assessed at 1.5 hr and again at 24 hr after the last training trial. […] Mice were monitored by a camera mounted in the ceiling directly above the pool, and all trials were stored on videotape for subsequent analysis.

Structure (SMILES): O=S(=O)(Nc1ccccc1O)c1ccc2oc3ccc(S(=O)(=O)Nc4ccccc4O)cc3c2c1 [ZCL279, N^2,N^8-bis(2-hydroxyphenyl)dibenzo[b,d]furan-2,8-disulfonamide]
- instinctual behavior: food burrowing [1]: improve instinctual behavior
- spatial memory ability compared with WT mice ([2]; 3×Tg AD mice, Day 4): appeared similar to WT mice
- spatial memory ability (latency in finding the submerged platform) ([2]; AD mouse model): improves spatial memory ability
